In US20220323443A1, “COMBINATION THERAPY FOR CANCER TREATMENT” (TAKEDA PHARMACEUTICAL COMPANY LIMITED, priority 2019, published 2022):

Tests used:
[1] = system: COLO205 human colorectal adenocarcinoma xenografts; assay: In vivo antitumor activity of Compound 1 and irradiation in nude mice; design: species or system mouse; conditions: Compound 1 40 mg/kg orally once daily Day 1-14 combined with irradiation 3 Gy on Day 1, 2, 3, 8, 9, 10
Protocol: Human colorectal carcinoma cell line, COLO205 xenograft model was established by subcutaneous injection of cell suspension (5×10^6 cells/100 μl/site, in 1:1 mixture of Hanks' balanced salt and BD Matrigel™ Matrix (BD biosciences)). Mice with tumor size of approximately 200 mm^3 were randomly assigned to dose groups on the day before start date of dosing (Day 0). Compound 1 was suspended in 0.5 w/v % methylcellulose and administered orally to mice at a dose of 40 mg/kg once daily on Day 1-14. Mice in irradiation groups were irradiated at a dose of 3 Gy daily on Day 1, 2, 3, 8, 9 and 10 under pentobarbital anesthesia. Tumors on the flanks of the mice were irradiated using an X-ray irradiator (MBR-1520R-3, Hitachi Power Solutions Co., Ltd., Ibaraki) and non-tumor part of mice were shielded by lead plate. Tumor size was measured by caliper and tumor volume was estimated using the equation V=(LW^2)/2, where L and W are tumor length and width, respectively and reported in cubic millimeters (FIG. 3).

[2] = system: A20 (Lymphoma); assay: In vivo combination study, syngeneic mouse tumor isograft model; conditions: note to Table 9
[3] = system: RNASEH2A knockout (KO) TK-6 cells and parental TK-6 cells; assay: In vitro growth inhibition assay, Cell Titer-Glo, 72 hours; type: cell-based; conditions: FIG. 9
Protocol: To determine further whether RNASEH2A is involved in the sensitization to compound 1, in vitro growth inhibition assay of compound 1 was carried out in RNASEH2A knockout (KO) TK-6 cells and its counterpart parental TK-6 cells. RNASEH2A KO TK-6 cells and its counterpart parental TK-6 cells were obtained from Kyoto University under a material transfer agreement. The cell lines were cultured in RPMI-1640 medium (FUJIFILM Wako Pure Chemical Corporation, Osaka, JAPAN) supplied with 10% Fetal Bovine Serum (CORNING Inc., NY, USA), sodium pyruvate (FUJIFILM Wako Pure Chemical Corporation, Osaka, JAPAN), and Penicillin-Streptomycin (FUJIFILM Wako Pure Chemical Corporation, Osaka, JAPAN). Stock solutions of compound 1 were prepared in dimethyl sulfoxide (DMSO), and stored at approximately −20 deg C.
Cell proliferation was measured by using Cell Titer-Glo Luminescent Cell Viability Assay (Promega, WI, USA.). The CellTiter-Glo Luminescent Cell Viability Assay is a homogeneous method of determining the number of viable cells in culture based on quantitation of the ATP present, which signals the presence of metabolically active cells. […] Luminescence of each well was measured by EnVision™ (PerkinElmer Inc., MA, USA). Taking as 100% the ATP content for the DMSO treatment control group, the ratio of the residual ATP content for each treatment group was determined. […]

## Cc1[nH]ncc1-c1cc2nc([C@@H]3CC4CCN3CC4)[nH]c(=O)c2s1 [Compound 1, 2-[(2S)-1-azabicyclo[2.2.2]oct-2-yl]-6-(3-methyl-1H-pyrazol-4-yl)thieno[3,2-d]pyrimidin-4(3H)-one]
[1]
  antitumor activity (tumor volume): strong antitumor activity and enhanced antitumor efficacy compared to either single treatment alone
[2]; by note order: Anti-mPD-1 study in A20 (61 mm^3)
  CR per group: 1
[2]; by note order: NKTR-214 + anti-mPD-1 study in A20 (61 mm^3)
  CR per group: 1
[2]; by note order: NKTR-214 study in A20 (61 mm^3)
  CR per group: 1
[3]
  sensitivity (growth inhibition) of RNASEH2A KO TK-6 cells versus WT TK-6 cells: more sensitive
